Measured values: PubChem BioAssay AID248 (DTP/NCI, 2004)
Several values for one entry are separate records, joined by “and”; a condition that tells them apart may be missing. Equal entries are not always repeated. Toxic doses and inconclusive results are not listed. Cut-off read from the data, not from the text of the source: active = T/C of 150% or more; inactive = T/C below 125%.

System: L1210 leukemia ip in BDF1 mice, survival T/C
Assay: NCI In Vivo Anticancer Drug Screen. Data for tumor model L1210 Leukemia (intraperitoneal) in B6D2F1 (BDF1) mice
Conditions: higher = longer survival
Outline: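 Survival endpoint. Drug-treated group vs vehicle group, expressed as T divided by C. Tumor passaged by transplantation.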

[1] = endpoint: mean survival time, dose: 50.0 mg/kg/injection, schedule: Q04DX003 (ip), vehicle: saline
[2] = endpoint: mean survival time, dose: 100.0 mg/kg/injection, schedule: Q04DX003 (ip), vehicle: saline
[3] = endpoint: mean survival time, dose: 200.0 mg/kg/injection, schedule: Q04DX003 (ip), vehicle: saline
[4] = endpoint: mean survival time, dose: 400.0 mg/kg/injection, schedule: Q04DX003 (ip), vehicle: saline
[5] = endpoint: mean survival time, dose: 25.0 mg/kg/injection, schedule: Q01DX009 (ip), vehicle: saline
[6] = endpoint: mean survival time, dose: 25.0 mg/kg/injection, schedule: Q04DX003 (ip), vehicle: saline
[7] = endpoint: mean survival time, dose: 50.0 mg/kg/injection, schedule: Q01DX009 (ip), vehicle: saline
[8] = endpoint: mean survival time, dose: 100.0 mg/kg/injection, schedule: Q01DX009 (ip), vehicle: saline with Tween-80
[9] = endpoint: mean survival time, dose: 200.0 mg/kg/injection, schedule: Q01DX009 (ip), vehicle: saline with Tween-80
[10] = endpoint: mean survival time, dose: 400.0 mg/kg/injection, schedule: Q01DX009 (ip), vehicle: saline with Tween-80
[11] = endpoint: mean survival time, dose: 100.0 mg/kg/injection, schedule: Q04DX003 (ip), vehicle: Klucel (hydroxypropylcellulose) (HPC)
[12] = endpoint: mean survival time, dose: 200.0 mg/kg/injection, schedule: Q04DX003 (ip), vehicle: Klucel (hydroxypropylcellulose) (HPC)
[13] = endpoint: mean survival time, dose: 400.0 mg/kg/injection, schedule: Q04DX003 (ip), vehicle: Klucel (hydroxypropylcellulose) (HPC)
[14] = endpoint: mean survival time, dose: 100.0 mg/kg/injection, schedule: Q01DX001 (ip), vehicle: saline
[15] = endpoint: mean survival time, dose: 200.0 mg/kg/injection, schedule: Q01DX001 (ip), vehicle: saline
[16] = endpoint: mean survival time, dose: 400.0 mg/kg/injection, schedule: Q01DX001 (ip), vehicle: saline

Measured: T/C

COc1ccc(C2c3cc4c(c(OC)c3CC3OCC(=O)C32)OCO4)cc1OC (stereo not drawn)
inactive: endpoint: mean survival time, dose: 12.5 mg/kg/injection, schedule: Q01DX009 (ip), vehicle: Klucel (hydroxypropylcellulose) (HPC) 110 % of control | endpoint: mean survival time, dose: 25.0 mg/kg/injection, schedule: Q01DX009 (ip), vehicle: Klucel (hydroxypropylcellulose) (HPC) 110 % of control | endpoint: mean survival time, dose: 50.0 mg/kg/injection, schedule: Q01DX009 (ip), vehicle: Klucel (hydroxypropylcellulose) (HPC) 123 % of control | [1] 110 % of control | endpoint: mean survival time, dose: 75.0 mg/kg/injection, schedule: Q01DX001 (ip), vehicle: Klucel (hydroxypropylcellulose) (HPC) 106 % of control | endpoint: mean survival time, dose: 100.0 mg/kg/injection, schedule: Q01DX009 (ip), vehicle: Klucel (hydroxypropylcellulose) (HPC) 121 % of control | [2] 116 % of control | endpoint: mean survival time, dose: 150.0 mg/kg/injection, schedule: Q01DX001 (ip), vehicle: Klucel (hydroxypropylcellulose) (HPC) 112 % of control | endpoint: mean survival time, dose: 200.0 mg/kg/injection, schedule: Q01DX009 (ip), vehicle: Klucel (hydroxypropylcellulose) (HPC) 101 % of control | [3] 116 % of control | endpoint: mean survival time, dose: 300.0 mg/kg/injection, schedule: Q01DX001 (ip), vehicle: Klucel (hydroxypropylcellulose) (HPC) 104 % of control | [4] 110 % of control | endpoint: mean survival time, dose: 600.0 mg/kg/injection, schedule: Q01DX001 (ip), vehicle: Klucel (hydroxypropylcellulose) (HPC) 115 % of control | endpoint: mean survival time, dose: 800.0 mg/kg/injection, schedule: Q04DX003 (ip), vehicle: saline 118 % of control | endpoint: mean survival time, dose: 1200.0 mg/kg/injection, schedule: Q01DX001 (ip), vehicle: Klucel (hydroxypropylcellulose) (HPC) 118 % of control | endpoint: median survival time, dose: 12.5 mg/kg/injection, schedule: Q01DX009 (ip), vehicle: Klucel (hydroxypropylcellulose) (HPC) 105 % of control | endpoint: median survival time, dose: 25.0 mg/kg/injection, schedule: Q01DX009 (ip), vehicle: Klucel (hydroxypropylcellulose) (HPC) 100 % of control | endpoint: median survival time, dose: 50.0 mg/kg/injection, schedule: Q01DX009 (ip), vehicle: Klucel (hydroxypropylcellulose) (HPC) 111 % of control | endpoint: median survival time, dose: 100.0 mg/kg/injection, schedule: Q01DX009 (ip), vehicle: Klucel (hydroxypropylcellulose) (HPC) 116 % of control

COc1ccccc1N1C(N)=NC(N)=NC1(C)C
inactive: [5] 104 % of control | [6] 113 % of control | [7] 98 % of control and 100 % of control | [1] 97 % of control | [2] 92 % of control

CCOC(=O)/C=C/C(=O)O
inactive: endpoint: mean survival time, dose: 50.0 mg/kg/injection, schedule: Q01DX001 (ip), vehicle: carboxymethylcellulose (CMC) 111 % of control | endpoint: mean survival time, dose: 75.0 mg/kg/injection, schedule: Q01DX001 (ip), vehicle: carboxymethylcellulose (CMC) 86 % of control | endpoint: mean survival time, dose: 100.0 mg/kg/injection, schedule: Q01DX001 (ip), vehicle: carboxymethylcellulose (CMC) 105 % of control | [2] 95 % of control and 109 % of control | endpoint: mean survival time, dose: 200.0 mg/kg/injection, schedule: Q01DX001 (ip), vehicle: carboxymethylcellulose (CMC) 114 % of control | [3] 103 % of control and 109 % of control | endpoint: mean survival time, dose: 400.0 mg/kg/injection, schedule: Q01DX001 (ip), vehicle: carboxymethylcellulose (CMC) 101 % of control | [4] 95 % of control and 97 % of control

COc1cc(C=O)ccc1OC(=O)Nc1cccc(Cl)c1Cl
inactive: [8] 90 % of control | [9] 90 % of control | [10] 92 % of control

O=C(Nc1cccc2ccccc12)c1ccc(C(=O)Nc2cccc3ccccc23)c(C(=O)O)c1
inactive: endpoint: mean survival time, dose: 50.0 mg/kg/injection, schedule: Q04DX002 (ip), vehicle: gum acacia 94 % of control | endpoint: mean survival time, dose: 100.0 mg/kg/injection, schedule: Q04DX002 (ip), vehicle: gum acacia 90 % of control | endpoint: mean survival time, dose: 200.0 mg/kg/injection, schedule: Q04DX002 (ip), vehicle: gum acacia 94 % of control

COC(=O)c1cc(N2CC2)nc(SC)n1
inactive: endpoint: mean survival time, dose: 6.0 mg/kg/injection, schedule: Q01DX Z (ip), vehicle: methylcellulose (MC) 96 % of control | endpoint: mean survival time, dose: 12.0 mg/kg/injection, schedule: Q01DX Z (ip), vehicle: methylcellulose (MC) 96 % of control

c1ccc(-c2cc(-c3ccccc3)n(-c3ccccc3)c2)cc1
inactive: endpoint: mean survival time, dose: 100.0 mg/kg/injection, schedule: Q01DX001 (ip), vehicle: saline with Tween-80 87 % of control | endpoint: mean survival time, dose: 200.0 mg/kg/injection, schedule: Q01DX001 (ip), vehicle: saline with Tween-80 89 % of control

Cc1ccc(Nc2cc(C)nc(N)n2)cc1
inactive: endpoint: mean survival time, dose: 25.0 mg/kg/injection, schedule: Q01DX Z (ip), vehicle: methylcellulose (MC) 90 % of control

O=C1NC(=O)C2(CCN(CC3COc4ccccc4O3)CC2)C(=O)N1 (stereo not drawn)
inactive: [11] 97 % of control | [12] 103 % of control | [13] 109 % of control

CC(O)C1(O)C(O)CC(OC2c3cc4c(c(O)c3[C@@H]3C[C@@]2(C)OC32C=c3cc[nH]c3=N2)C(=O)c2cccc(O)c2C4=O)OC1C (stereo partly drawn)
inactive: endpoint: mean survival time, dose: 0.5 mg/kg/injection, schedule: Q01DX009 (ip), vehicle: saline with Tween-80 101 % of control | endpoint: mean survival time, dose: 1.0 mg/kg/injection, schedule: Q01DX009 (ip), vehicle: saline with Tween-80 101 % of control | endpoint: mean survival time, dose: 2.0 mg/kg/injection, schedule: Q01DX009 (ip), vehicle: saline with Tween-80 105 % of control | endpoint: mean survival time, dose: 2.0 mg/kg/injection, schedule: Q01DX009 (ip), vehicle: saline 112 % of control | endpoint: mean survival time, dose: 4.0 mg/kg/injection, schedule: Q01DX009 (ip), vehicle: saline with Tween-80 110 % of control | endpoint: mean survival time, dose: 4.0 mg/kg/injection, schedule: Q01DX009 (ip), vehicle: saline 109 % of control | endpoint: mean survival time, dose: 8.0 mg/kg/injection, schedule: Q01DX009 (ip), vehicle: saline with Tween-80 103 % of control | endpoint: mean survival time, dose: 8.0 mg/kg/injection, schedule: Q01DX009 (ip), vehicle: saline 106 % of control | endpoint: mean survival time, dose: 16.0 mg/kg/injection, schedule: Q01DX009 (ip), vehicle: saline 121 % of control | endpoint: mean survival time, dose: 32.0 mg/kg/injection, schedule: Q01DX009 (ip), vehicle: saline 104 % of control

N#CCCOc1ccccc1
inactive: [14] 108 % of control | [15] 108 % of control | [16] 104 % of control

O=C1Nc2ccccc2C1O (stereo not drawn)
inactive: [14] 101 % of control | [15] 101 % of control | [16] 108 % of control

COc1c(NC(=O)COc2ccc(Cl)cc2)cccc1[N+](=O)[O-]
inactive: [8] 96 % of control | [9] 100 % of control | [10] 94 % of control

CNC(=O)Oc1c([N+](=O)[O-])cc([N+](=O)[O-])c2ccccc12
inactive: endpoint: mean survival time, dose: 75.0 mg/kg/injection, schedule: Q01DX001 (ip), vehicle: other 111 % of control | endpoint: mean survival time, dose: 150.0 mg/kg/injection, schedule: Q01DX001 (ip), vehicle: other 102 % of control

O=C(/C(=N/OCc1ccccc1)c1ccccc1)c1ccccc1
inactive: [14] 102 % of control | [15] 102 % of control | [16] 98 % of control

COc1ccccc1N=Nc1cc(C)c(C)cc1O
inactive: endpoint: mean survival time, dose: 50.0 mg/kg/injection, schedule: Q01DX009 (ip), vehicle: saline with Tween-80 106 % of control | [8] 103 % of control | [9] 95 % of control

CCCCOc1ccc(OCCCC)cc1
inactive: endpoint: mean survival time, dose: 100.0 mg/kg/injection, schedule: Q04DX002 (ip), vehicle: Klucel (hydroxypropylcellulose) (HPC) 105 % of control | endpoint: mean survival time, dose: 200.0 mg/kg/injection, schedule: Q04DX002 (ip), vehicle: Klucel (hydroxypropylcellulose) (HPC) 97 % of control | endpoint: mean survival time, dose: 400.0 mg/kg/injection, schedule: Q04DX002 (ip), vehicle: Klucel (hydroxypropylcellulose) (HPC) 101 % of control

COc1cc2c(cc1OC)C(=O)CN(S(=O)(=O)c1ccc(C)cc1)CC2
inactive: endpoint: mean survival time, dose: 50.0 mg/kg/injection, schedule: Q01DX009 (ip), vehicle: saline sonified 101 % of control | endpoint: mean survival time, dose: 100.0 mg/kg/injection, schedule: Q01DX009 (ip), vehicle: saline sonified 87 % of control | [11] 96 % of control | endpoint: mean survival time, dose: 200.0 mg/kg/injection, schedule: Q01DX009 (ip), vehicle: saline sonified 89 % of control | [12] 96 % of control | [13] 97 % of control

CNCCCN(C)CCCNC
inactive: [5] 100 % of control | [6] 96 % of control | [7] 101 % of control | [1] 104 % of control | endpoint: mean survival time, dose: 100.0 mg/kg/injection, schedule: Q01DX009 (ip), vehicle: saline 94 % of control | [2] 99 % of control and 102 % of control
